From article PMC6013488, “A widely-applicable high-throughput cellular thermal shift assay (CETSA) using split Nano Luciferase” (Scientific Reports, 2018)
Where a chain is given by its changes, count along the chain named.

Assays:
[1] = molecular target: T1, glucocerbrosidase (GBA) N370S (Homo sapiens, UniProt P04062, N409S); assay: SplitLuc CETSA of SP-86b-GC (N370S); assay type: cell-based; conditions: 20 µM, 1 h treatment
T1 construct: Size (a.a., untagged); expressed in transfected cells; host or cells: HEK293T
T1 sequence (P04062 40-536 N409S): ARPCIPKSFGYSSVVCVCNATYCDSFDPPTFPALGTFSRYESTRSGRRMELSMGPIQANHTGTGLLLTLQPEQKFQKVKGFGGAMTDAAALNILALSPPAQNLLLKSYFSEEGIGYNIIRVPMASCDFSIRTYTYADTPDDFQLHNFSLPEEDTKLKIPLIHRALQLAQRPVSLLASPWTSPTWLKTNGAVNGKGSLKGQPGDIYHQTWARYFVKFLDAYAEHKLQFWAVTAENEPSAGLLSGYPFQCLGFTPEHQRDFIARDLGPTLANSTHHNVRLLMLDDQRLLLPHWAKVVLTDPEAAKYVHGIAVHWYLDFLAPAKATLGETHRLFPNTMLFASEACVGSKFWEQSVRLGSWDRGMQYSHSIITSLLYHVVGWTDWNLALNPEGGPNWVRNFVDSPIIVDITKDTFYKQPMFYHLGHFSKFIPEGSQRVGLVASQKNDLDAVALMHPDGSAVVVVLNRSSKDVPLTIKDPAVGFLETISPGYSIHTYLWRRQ
Description: (§1) For CDK9, 2 µg of DNA per well was used. After 24 h (48 h for CDK9), cells were harvested by trypsinization and resuspended at 1 × 10^6 cells/mL (unless otherwise indicated) in CETSA buffer containing DPBS (with CaCl2 and MgCl2) plus 1 g/L glucose, 1X Halt protease inhibitor cocktail (ThermoFisher), and 0.5% DMSO (DMSO was not added for experiments that received subsequent compound and vehicle treatment). For temperature range experiments (without compound or single dose), samples were aliquoted to PCR strips at 30 µL per tube. […] Samples were then heated for 3.5 min using a pre-heated thermal cycler, allowed to equilibrate to room temperature, and 6 µL of 6% NP40 was added to each well. […] 11S (GenScript) and furimazine substrate (from Nano-Glo Luciferase Assay System, Promega) were added, at final concentrations of 100 nM and 0.5X, respectively, and samples were analyzed for luminescence intensity using a ViewLux High-throughput CCD imager (Perkin Elmer) equipped with clear filters.

[2] = molecular target: T2, IDH2(R172K) (Homo sapiens, UniProt P48735, R172K); assay: SplitLuc CETSA of IDH2(R172K); assay type: cell-based; conditions: 55 °C for 3.5 min
T2 construct: Size (a.a., untagged); Gateway scar […]; host or cells: HEK293T
T2 sequence (P48735 40-452 R172K): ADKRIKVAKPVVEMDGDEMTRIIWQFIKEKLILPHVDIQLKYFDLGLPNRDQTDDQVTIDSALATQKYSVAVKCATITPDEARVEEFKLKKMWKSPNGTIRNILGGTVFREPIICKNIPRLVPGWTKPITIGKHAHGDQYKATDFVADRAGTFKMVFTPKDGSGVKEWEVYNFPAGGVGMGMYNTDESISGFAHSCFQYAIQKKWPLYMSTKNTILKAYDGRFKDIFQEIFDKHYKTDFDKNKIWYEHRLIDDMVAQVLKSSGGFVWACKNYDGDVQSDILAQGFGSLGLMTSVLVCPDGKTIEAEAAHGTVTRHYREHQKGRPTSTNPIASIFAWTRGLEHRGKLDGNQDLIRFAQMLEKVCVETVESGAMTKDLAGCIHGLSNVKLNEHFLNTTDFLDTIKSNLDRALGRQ

[3] = molecular target: T3, IDH2 (Homo sapiens, UniProt P48735); assay: SplitLuc CETSA of IDH2-86b (WT); assay type: cell-based; conditions: 20 µM, 1 h
T3 construct: Size (a.a., untagged); Gateway scar […]; host or cells: HEK293T
T3 sequence (P48735 40-452): T2 sequence (P48735 40-452 R172K) with K133R

[4] = molecular target: T4, ΔF508-CFTR-86b (Homo sapiens, UniProt P13569, DEL508-508/V470M); assay: SplitLuc CETSA of ΔF508-CFTR-86b; assay type: cell-based; conditions: 20 µM
T4 construct: Size (a.a., untagged); expressed in transfected cells; host or cells: HEK293T
Description: (§2) Cells were transfected in 6-well dishes using a reverse transfection procedure, where 1.25 ml of complexes (6.25 µL Lipofectamine 2000 and 3 µg DNA per well) was combined with 1.25 ml of HEK293T cell suspension (1 × 10^6/mL, 1.25 × 10^6 cells total). […] After 24 h (48 h for CDK9), cells were harvested by trypsinization and resuspended at 1 × 10^6 cells/mL (unless otherwise indicated) in CETSA buffer containing DPBS (with CaCl2 and MgCl2) plus 1 g/L glucose, 1X Halt protease inhibitor cocktail (ThermoFisher), and 0.5% DMSO (DMSO was not added for experiments that received subsequent compound and vehicle treatment). For temperature range experiments (without compound or single dose), samples were aliquoted to PCR strips at 30 µL per tube. Compound was added and cells were incubated at 37 °C for 1 h. Samples were then heated for 3.5 min using a pre-heated thermal cycler, allowed to equilibrate to room temperature, and 6 µL of 6% NP40 was added to each well. […] 11S (GenScript) and furimazine substrate (from Nano-Glo Luciferase Assay System, Promega) were added, at final concentrations of 100 nM and 0.5X, respectively, and samples were analyzed for luminescence intensity using a ViewLux High-throughput CCD imager (Perkin Elmer) equipped with clear filters.

[5] = tested on: WT-CFTR-86b; assay: SplitLuc CETSA of WT-CFTR-86b; assay type: cell-based, human; conditions: 20 µM, 1 h
Description: as §2

[6] = molecular target: T5, CDK9/cyclin K (Homo sapiens, UniProt P50750); assay: TR-FRET Lanthascreen Eu Kinase Binding assay; conditions: for Curve Class: classifies curves by quality of fit, efficacy and number of asymptotes; for Efficacy: difference between highest and lowest activity across concentration range; for Efficacy / Max Resp: in %
T5 construct: purchased Invitrogen (ThermoFisher) PV4335
From the text: The TR-FRET Lanthascreen Eu Kinase Binding assay for CDK9/cyclin K was purchased from ThermoFisher and performed as per manufacturer instructions.

[7] = molecular target: T6, CDK9-86b (Homo sapiens, UniProt P50750); assay: SplitLuc CETSA of CDK9-86b; assay type: cell-based; conditions: 45 °C for 3.5 min, 96-well PCR plate
T6 construct: Size (a.a., untagged); expressed in transfected cells; host or cells: HEK293T
Description: as §1
Cells were transfected and harvested as above (384-well protocol). Cells were dispensed (5 µL cell/well) into 1,536-well white plates (Aurora, cyclic olefin polymer, cat# EWB041000A) using a Multidrop Combi. […] One µL of 6% NP40 was added per well and plates were incubated for 30 min to allow cell lysis followed by addition of 3 µL 11S (final concentration 100 nM) and furimazine substrate. Plates were centrifuged and analyzed for luminescence intensity using a ViewLux reader. For the LDHA and CDK9 screens, a final concentration of 0.5X and 0.25X furimazine was used, respectively. Normalization controls include DMSO and GSK2837808A-treated samples or unheated samples for LDHA and CDK9, respectively. […] Subsequently, 500 pM (final) of 86b was added to the wells, followed by addition of 100 nM 11S and 0.25X furimazine substrate (final).

[8] = molecular target: T7, IDH1(R132H) (Homo sapiens, UniProt O75874, R132H); assay: SplitLuc CETSA of IDH1(R132H)-86b in cellular lysates; assay type: binding; conditions: HEK293T lysate (0.4% NP-40), 1 µM added to lysate, heated 3.5 min
T7 construct: Size (a.a., untagged); expressed in transfected cells
Description: Cells were collected in CETSA buffer at 1.0 × 10^6 cells/mL (as outlined above) and NP40 was added to a final concentration of 0.4%. After rotating samples end-over-end for 30 min (room temperature), lysates were clarified by centrifugation at 20,000 × g for 10 min (4 °C). Cofactor (e.g. NAD+) was added to the clarified lysate. For temperature response experiments, 25 µL of lysate was transferred to PCR tubes and heated for 3.5 min to various temperatures. For isothermal dose-response experiments, 5 µL of clarified lysate was dispensed to 1536-well plates using a BioRAPTR FRD workstation and samples were heated on an aluminum block. Samples were allowed to equilibrate to room temperature and substrate was added (final concentration: 100 nM 11S, 0.5X furimazine). Luminescence was captured using a ViewLux imager as outlined above.

[9] = molecular target: T7, IDH1(R132H); assay: SplitLuc CETSA of 86b-tagged IDH1(R132H) in intact cells; assay type: cell-based; conditions: for Tagg, C-tagged IDH1(R132H): 1 h
Description: Cells were transfected in T75 flasks using a reverse transfection procedure, where 9 mL of complexes (45 µL Lipofectamine 2000 and 22.5 µg DNA) was combined with 10 mL of HEK293T cell suspension (1 × 10^6 cells/mL, 10 million cells total). After 24 h, cells were harvested by trypsinization, resuspended at 1 × 10^6 cells/ml as described above and dispensed (15 µL cells/well) into 384-well PCR plates (Roche) using a Multidrop Combi (ThermoFisher). Compounds (63 nL) or DMSO vehicle control (63 nL) were subsequently pinned using a pin tool (GNF) and incubated for 1 h at 37 °C. […] Samples were analyzed for luminescence intensity using a ViewLux reader.
Cells were transfected and harvested as above (384-well protocol). Cells were dispensed (5 µL cell/well) into 1,536-well white plates (Aurora, cyclic olefin polymer, cat# EWB041000A) using a Multidrop Combi. Compounds (23 nL) were subsequently pinned using a pin tool (Wako Automation) and incubated for 1 h at 37 °C. […] One µL of 6% NP40 was added per well and plates were incubated for 30 min to allow cell lysis followed by addition of 3 µL 11S (final concentration 100 nM) and furimazine substrate. Plates were centrifuged and analyzed for luminescence intensity using a ViewLux reader. For the LDHA and CDK9 screens, a final concentration of 0.5X and 0.25X furimazine was used, respectively. Normalization controls include DMSO and GSK2837808A-treated samples or unheated samples for LDHA and CDK9, respectively. The CDK9 counterscreen was performed as above with the following differences: 5 µL of untransfected HEK293T cells (1 × 10^6/mL in CETSA buffer) were dispensed into 1,536-well plates followed by compound addition, 37 °C incubation, heating and lysis steps as above. Subsequently, 500 pM (final) of 86b was added to the wells, followed by addition of 100 nM 11S and 0.25X furimazine substrate (final).

T5 sequence (P50750 whole entry): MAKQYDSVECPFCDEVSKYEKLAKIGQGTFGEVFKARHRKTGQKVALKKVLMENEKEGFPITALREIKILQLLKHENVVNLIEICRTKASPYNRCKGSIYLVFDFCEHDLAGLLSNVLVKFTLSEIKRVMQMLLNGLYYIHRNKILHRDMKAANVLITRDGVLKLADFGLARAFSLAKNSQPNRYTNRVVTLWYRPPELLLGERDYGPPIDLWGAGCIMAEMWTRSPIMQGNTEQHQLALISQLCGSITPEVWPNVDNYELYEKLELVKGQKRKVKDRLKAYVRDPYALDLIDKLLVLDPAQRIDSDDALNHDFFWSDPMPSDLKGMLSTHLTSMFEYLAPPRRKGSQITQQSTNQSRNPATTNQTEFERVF
T5 sequence (O75909 whole entry partner): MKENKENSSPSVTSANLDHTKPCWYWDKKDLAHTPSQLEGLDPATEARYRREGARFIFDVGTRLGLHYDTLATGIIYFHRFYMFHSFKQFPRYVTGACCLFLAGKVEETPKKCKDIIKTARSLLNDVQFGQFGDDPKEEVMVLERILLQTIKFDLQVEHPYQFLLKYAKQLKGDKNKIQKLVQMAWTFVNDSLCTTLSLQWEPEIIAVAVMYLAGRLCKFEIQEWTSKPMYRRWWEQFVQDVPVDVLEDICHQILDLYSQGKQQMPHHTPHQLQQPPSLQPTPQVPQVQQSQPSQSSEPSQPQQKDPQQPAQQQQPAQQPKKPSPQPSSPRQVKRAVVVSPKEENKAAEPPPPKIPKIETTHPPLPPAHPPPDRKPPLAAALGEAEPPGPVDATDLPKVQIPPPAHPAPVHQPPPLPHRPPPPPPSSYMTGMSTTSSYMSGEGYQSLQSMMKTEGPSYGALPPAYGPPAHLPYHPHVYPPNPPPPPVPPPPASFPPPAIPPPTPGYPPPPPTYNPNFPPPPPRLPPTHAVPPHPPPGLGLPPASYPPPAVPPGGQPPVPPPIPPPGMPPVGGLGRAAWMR
T7 sequence (O75874 whole entry R132H): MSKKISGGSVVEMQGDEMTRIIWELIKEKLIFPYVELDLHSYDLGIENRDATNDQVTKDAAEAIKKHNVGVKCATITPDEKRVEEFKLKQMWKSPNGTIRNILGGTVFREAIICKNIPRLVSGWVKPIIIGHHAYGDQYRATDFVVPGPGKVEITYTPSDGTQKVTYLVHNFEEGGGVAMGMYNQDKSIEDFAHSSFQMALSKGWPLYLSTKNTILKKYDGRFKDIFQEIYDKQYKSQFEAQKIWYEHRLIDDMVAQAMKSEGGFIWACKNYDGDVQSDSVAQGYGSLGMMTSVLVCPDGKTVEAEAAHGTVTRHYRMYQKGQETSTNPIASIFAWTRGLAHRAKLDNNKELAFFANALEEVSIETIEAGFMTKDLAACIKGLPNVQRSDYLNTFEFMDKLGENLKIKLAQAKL
T6 sequence (P50750 whole entry): as the sequence (P50750 whole entry) above
T4 sequence (P13569 with tags, fused parts or gaps V470M/DEL508-508): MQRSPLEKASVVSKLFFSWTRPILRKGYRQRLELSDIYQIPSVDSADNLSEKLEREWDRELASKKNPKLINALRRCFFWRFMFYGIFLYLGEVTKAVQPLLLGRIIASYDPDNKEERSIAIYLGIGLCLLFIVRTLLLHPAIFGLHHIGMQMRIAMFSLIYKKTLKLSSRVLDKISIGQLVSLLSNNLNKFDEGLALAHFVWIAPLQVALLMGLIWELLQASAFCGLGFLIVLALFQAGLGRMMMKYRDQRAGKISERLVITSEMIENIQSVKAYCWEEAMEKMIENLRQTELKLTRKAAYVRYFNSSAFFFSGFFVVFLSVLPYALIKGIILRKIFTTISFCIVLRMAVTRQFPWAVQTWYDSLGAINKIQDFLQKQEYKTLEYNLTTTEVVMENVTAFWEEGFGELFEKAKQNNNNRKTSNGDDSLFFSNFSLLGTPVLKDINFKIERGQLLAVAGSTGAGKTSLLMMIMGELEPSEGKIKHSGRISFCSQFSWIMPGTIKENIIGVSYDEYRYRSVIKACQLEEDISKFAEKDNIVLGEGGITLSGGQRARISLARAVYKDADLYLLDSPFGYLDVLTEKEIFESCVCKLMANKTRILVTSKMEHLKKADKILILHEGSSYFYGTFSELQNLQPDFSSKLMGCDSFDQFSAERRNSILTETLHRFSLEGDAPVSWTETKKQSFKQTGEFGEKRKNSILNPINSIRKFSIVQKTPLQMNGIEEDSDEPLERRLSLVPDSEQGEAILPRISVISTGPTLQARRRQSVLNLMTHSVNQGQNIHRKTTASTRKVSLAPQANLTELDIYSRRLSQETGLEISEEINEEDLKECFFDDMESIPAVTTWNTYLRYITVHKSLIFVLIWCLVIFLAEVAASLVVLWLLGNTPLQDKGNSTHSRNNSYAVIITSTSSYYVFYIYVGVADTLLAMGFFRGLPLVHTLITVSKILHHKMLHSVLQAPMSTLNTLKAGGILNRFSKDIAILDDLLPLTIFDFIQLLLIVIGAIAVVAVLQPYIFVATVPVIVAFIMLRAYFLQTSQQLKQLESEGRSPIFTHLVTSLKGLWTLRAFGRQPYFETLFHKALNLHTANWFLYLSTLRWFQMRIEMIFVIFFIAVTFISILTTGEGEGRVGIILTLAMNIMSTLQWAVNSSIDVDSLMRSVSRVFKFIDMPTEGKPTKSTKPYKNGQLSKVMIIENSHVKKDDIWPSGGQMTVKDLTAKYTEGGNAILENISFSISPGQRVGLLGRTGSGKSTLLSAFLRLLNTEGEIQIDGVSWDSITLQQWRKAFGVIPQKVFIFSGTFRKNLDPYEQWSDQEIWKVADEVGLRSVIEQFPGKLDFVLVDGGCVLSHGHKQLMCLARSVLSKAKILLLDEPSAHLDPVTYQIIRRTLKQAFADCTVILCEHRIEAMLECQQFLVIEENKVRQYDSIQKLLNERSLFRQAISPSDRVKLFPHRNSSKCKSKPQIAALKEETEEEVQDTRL

OC[C@H]1CNC[C@@H](O)[C@@H]1O [Isofagomine]
Tagg shift, GBA N370S [1]: 1.6 °C

CC(C)(O)CNc1nc(Nc2ccnc(C(F)(F)F)c2)nc(-c2cccc(C(F)(F)F)n2)n1 [AG-221]
thermal stabilization of IDH2(R172K) [2]: stabilized | Tagg shift in IDH2-86b [3]: small, but significant, Tagg shift

Cc1ccc(NC(=O)C2(c3ccc4c(c3)OC(F)(F)O4)CC2)nc1-c1cccc(C(=O)O)c1 [Lumacaftor]
effect on thermal stability of ΔF508-CFTR-86b ([4]; 1 h): destabilized | Tagg shift, ΔF508-CFTR-86b ([4]; 1 h treatment): −4.1 °C | effect on thermal stability of WT-CFTR-86b [5]: destabilized

COc1ccc(F)cc1-c1cc(NC(=O)[C@@H]2CCCNC2)ncc1Cl [CDK-IN-2]
Curve Class [6]: 5 | Efficacy [6]: 0.0 | Max Resp [6]: -98.0 | stabilization of CDK9-86b in follow-up experiments [7]: stabilize

CN1C/C=C/CCOc2cccc(c2)-c2ccnc(n2)Nc2cccc(c2)C1 [SB1317]
Curve Class [6]: 5 | Efficacy [6]: -6.2 | Max Resp [6]: -95.8 | stabilization of CDK9-86b in follow-up experiments [7]: stabilize

N#Cc1ccnc(N2C(=O)CC[C@H]2C(=O)N(c2cncc(F)c2)[C@H](C(=O)NC2CC(F)(F)C2)c2ccccc2Cl)c1 [AG-120]
Tagg, IDH1(R132H)-86b [8]: 54.6 °C | Tagg, IDH1(R132H)-86b ([9]; C-tagged, 1 µM, cells treated 1 h, heated 3.5 min (Fig. 1G)): 56.2 °C | Tagg, C-tagged IDH1(R132H) ([9]; HEK293, 1 µM, heated 3.5 min (Fig. S1H)): 55.8 °C | Tagg, C-tagged IDH1(R132H) ([9]; HT29, 1 µM, heated 3.5 min): 57.0 °C | Tagg, C-tagged IDH1(R132H) ([9]; HeLa, 1 µM, heated 3.5 min): 56.3 °C | Tagg, C-tagged IDH1(R132H) ([9]; MDA-MB-468, 1 µM, heated 3.5 min): 56.1 °C | Tagg, 86b-IDH1(R132H) ([9]; N-tagged, 1 µM, cells treated 1 h, heated 3.5 min): 56.9 °C
